Source: ChEMBL document CHEMBL4507259 (2021)

How the values were obtained:
[1] = target: Ephrin type-A receptor 4 (Homo sapiens) (UniProt P54764); settings: Compound concentration 1000.0 nM
[2] = target: Serine/threonine-protein kinase tousled-like 1 (Homo sapiens) (UniProt Q9UKI8); settings: Compound concentration 1000.0 nM
[3] = target: 3-phosphoinositide-dependent protein kinase 1 (Homo sapiens) (UniProt O15530); settings: Compound concentration 1000.0 nM
[4] = target: Maternal embryonic leucine zipper kinase (Homo sapiens) (UniProt Q14680); settings: Compound concentration 1000.0 nM
[5] = target: Cytoplasmic tyrosine-protein kinase BMX (Homo sapiens) (UniProt P51813); settings: Compound concentration 1000.0 nM
[6] = target: Rhodopsin kinase GRK7 (Homo sapiens) (UniProt Q8WTQ7); settings: Compound concentration 1000.0 nM
[7] = target: Mitogen-activated protein kinase kinase kinase 20 (Homo sapiens) (UniProt Q9NYL2); settings: Compound concentration 1000.0 nM
[8] = target: Sodium/potassium-transporting ATPase (Homo sapiens) (UniProt P05023+P14415+P05026+P50993+P54709+P13637+Q13733+P54710); assay: ATPase (Na+/K+) CEREP ligand profiling; type: protein-complex assay; settings: Compound concentration 10.0 uM
[9] = system: Tyrosine-protein kinase ABL1 (Homo sapiens), P00519 [H396P]; settings: Compound concentration 1000.0 nM
[10] = target: Receptor tyrosine-protein kinase erbB-3 (Homo sapiens) (UniProt P21860); settings: Compound concentration 1000.0 nM
Sequence of Receptor tyrosine-protein kinase erbB-3 (Homo sapiens) (P21860 whole entry): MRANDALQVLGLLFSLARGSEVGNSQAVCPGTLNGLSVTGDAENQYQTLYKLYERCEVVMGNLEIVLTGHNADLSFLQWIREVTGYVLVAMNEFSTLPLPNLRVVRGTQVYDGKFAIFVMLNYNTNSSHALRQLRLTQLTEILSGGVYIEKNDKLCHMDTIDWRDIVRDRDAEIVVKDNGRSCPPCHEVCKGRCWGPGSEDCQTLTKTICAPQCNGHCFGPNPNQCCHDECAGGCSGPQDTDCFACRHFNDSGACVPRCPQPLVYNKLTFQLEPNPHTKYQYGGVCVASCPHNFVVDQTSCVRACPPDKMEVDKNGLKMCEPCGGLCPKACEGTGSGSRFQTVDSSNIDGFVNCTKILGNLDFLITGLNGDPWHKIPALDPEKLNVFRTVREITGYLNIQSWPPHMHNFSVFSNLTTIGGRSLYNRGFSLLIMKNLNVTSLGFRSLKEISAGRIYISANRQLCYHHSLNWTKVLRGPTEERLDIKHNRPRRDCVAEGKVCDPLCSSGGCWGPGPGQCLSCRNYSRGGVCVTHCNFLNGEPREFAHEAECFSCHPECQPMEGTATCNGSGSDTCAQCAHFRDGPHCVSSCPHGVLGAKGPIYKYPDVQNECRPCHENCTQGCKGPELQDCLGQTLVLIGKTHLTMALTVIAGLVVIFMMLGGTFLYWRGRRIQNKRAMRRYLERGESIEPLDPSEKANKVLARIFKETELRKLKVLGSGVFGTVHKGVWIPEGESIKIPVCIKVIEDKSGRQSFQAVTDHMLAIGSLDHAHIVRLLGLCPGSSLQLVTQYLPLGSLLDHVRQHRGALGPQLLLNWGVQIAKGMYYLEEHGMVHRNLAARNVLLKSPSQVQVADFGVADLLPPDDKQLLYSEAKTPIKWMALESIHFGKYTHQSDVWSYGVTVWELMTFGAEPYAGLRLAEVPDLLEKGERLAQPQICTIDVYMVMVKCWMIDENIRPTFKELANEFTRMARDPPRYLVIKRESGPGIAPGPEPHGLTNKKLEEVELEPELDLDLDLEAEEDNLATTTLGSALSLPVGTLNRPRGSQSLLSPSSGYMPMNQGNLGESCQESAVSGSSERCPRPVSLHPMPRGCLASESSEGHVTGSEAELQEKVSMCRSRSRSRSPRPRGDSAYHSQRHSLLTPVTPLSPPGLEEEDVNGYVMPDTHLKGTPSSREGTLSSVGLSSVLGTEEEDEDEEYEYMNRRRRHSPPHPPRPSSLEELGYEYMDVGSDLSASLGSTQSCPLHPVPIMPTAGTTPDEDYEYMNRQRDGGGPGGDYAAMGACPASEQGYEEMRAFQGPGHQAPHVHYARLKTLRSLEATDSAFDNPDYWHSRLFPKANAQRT

[11] = system: Epidermal growth factor receptor (Homo sapiens), P00533 [UNDEFINED MUTATION]; settings: Compound concentration 1000.0 nM
[12] = target: Epithelial discoidin domain-containing receptor 1 (Homo sapiens) (UniProt Q08345); settings: Compound concentration 1000.0 nM
[13] = target: Serine/threonine-protein kinase 3 (Homo sapiens) (UniProt Q13188); settings: Compound concentration 1000.0 nM
Sequence of Serine/threonine-protein kinase 3 (Homo sapiens) (Q13188 whole entry): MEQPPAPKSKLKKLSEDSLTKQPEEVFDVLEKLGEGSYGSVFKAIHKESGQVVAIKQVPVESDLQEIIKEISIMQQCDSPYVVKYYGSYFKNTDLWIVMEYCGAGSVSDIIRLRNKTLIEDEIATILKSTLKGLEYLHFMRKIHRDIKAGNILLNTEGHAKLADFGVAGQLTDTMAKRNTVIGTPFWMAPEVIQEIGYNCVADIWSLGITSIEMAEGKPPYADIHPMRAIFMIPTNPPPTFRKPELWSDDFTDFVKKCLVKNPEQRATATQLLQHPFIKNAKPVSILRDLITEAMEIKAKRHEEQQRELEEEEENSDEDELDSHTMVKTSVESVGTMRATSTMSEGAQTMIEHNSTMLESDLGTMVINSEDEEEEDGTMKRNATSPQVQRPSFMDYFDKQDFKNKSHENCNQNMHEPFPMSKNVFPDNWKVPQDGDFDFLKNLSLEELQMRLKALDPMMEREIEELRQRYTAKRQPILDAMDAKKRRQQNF

[14] = target: Cyclin-dependent kinase 8 (Homo sapiens) (UniProt P49336); settings: Compound concentration 1000.0 nM
Sequence of Cyclin-dependent kinase 8 (Homo sapiens) (P49336 whole entry): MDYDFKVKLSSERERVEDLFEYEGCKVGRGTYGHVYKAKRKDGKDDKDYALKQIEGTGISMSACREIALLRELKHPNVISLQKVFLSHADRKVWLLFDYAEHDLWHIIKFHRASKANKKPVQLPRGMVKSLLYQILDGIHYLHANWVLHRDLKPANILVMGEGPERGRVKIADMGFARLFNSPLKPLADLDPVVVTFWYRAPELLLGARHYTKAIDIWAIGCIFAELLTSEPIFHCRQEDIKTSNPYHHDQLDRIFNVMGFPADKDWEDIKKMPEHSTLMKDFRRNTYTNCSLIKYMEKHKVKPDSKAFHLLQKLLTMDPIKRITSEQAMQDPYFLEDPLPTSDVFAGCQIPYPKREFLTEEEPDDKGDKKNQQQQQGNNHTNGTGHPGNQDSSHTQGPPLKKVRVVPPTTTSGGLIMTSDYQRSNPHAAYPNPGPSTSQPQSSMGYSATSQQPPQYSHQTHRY

[15] = target: Serine/threonine-protein kinase B-raf (Homo sapiens) (UniProt P15056); settings: Compound concentration 1000.0 nM
Sequence of Serine/threonine-protein kinase B-raf (Homo sapiens) (P15056 whole entry): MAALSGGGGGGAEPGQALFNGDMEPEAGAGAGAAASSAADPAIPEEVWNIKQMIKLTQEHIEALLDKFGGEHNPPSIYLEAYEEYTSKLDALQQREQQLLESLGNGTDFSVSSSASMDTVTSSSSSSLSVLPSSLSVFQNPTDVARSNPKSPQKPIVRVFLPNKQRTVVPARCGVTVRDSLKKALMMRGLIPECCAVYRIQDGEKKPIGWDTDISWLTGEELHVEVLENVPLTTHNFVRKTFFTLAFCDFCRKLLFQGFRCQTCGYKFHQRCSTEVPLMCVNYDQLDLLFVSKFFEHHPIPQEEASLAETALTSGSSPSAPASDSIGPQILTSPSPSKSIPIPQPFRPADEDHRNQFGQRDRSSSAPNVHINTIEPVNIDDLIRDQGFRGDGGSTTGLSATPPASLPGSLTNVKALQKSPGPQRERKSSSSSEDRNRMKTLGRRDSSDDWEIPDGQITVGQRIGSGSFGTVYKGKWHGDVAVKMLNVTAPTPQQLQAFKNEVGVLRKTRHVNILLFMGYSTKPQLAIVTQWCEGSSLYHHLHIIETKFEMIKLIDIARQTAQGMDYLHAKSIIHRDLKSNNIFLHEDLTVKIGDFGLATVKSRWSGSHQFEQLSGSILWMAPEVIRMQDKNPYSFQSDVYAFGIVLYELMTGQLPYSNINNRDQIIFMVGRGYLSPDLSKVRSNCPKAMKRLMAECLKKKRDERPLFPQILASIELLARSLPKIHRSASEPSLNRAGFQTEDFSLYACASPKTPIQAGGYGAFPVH

[16] = target: Peroxisome proliferator-activated receptor gamma (Homo sapiens) (UniProt P37231); assay: PPARgamma (h) CEREP ligand profiling; settings: filed as agonist, Compound concentration 10.0 uM
[17] = target: Serine/threonine-protein kinase PAK 6 (Homo sapiens) (UniProt Q9NQU5); settings: Compound concentration 1000.0 nM
[18] = target: Casein kinase I isoform alpha (Homo sapiens) (UniProt P48729); settings: Compound concentration 1000.0 nM
[19] = GPCRScan assay: inhibition of GABA/PBR; set-up: species or system Rattus norvegicus; radioligand conc. used [nm] 0.3 – 2.0, parental cells brain tissue
[20] = system: Proto-oncogene tyrosine-protein kinase receptor Ret (Homo sapiens), P07949 [V804L]; settings: Compound concentration 1000.0 nM
[21] = system: Tyrosine-protein kinase ABL1 (Homo sapiens), P00519 [Y253F]; settings: Compound concentration 1000.0 nM
[22] = target: Serine/threonine-protein kinase 26 (Homo sapiens) (UniProt Q9P289); settings: Compound concentration 1000.0 nM
Sequence of Serine/threonine-protein kinase 26 (Homo sapiens) (Q9P289 2-416 limits assumed): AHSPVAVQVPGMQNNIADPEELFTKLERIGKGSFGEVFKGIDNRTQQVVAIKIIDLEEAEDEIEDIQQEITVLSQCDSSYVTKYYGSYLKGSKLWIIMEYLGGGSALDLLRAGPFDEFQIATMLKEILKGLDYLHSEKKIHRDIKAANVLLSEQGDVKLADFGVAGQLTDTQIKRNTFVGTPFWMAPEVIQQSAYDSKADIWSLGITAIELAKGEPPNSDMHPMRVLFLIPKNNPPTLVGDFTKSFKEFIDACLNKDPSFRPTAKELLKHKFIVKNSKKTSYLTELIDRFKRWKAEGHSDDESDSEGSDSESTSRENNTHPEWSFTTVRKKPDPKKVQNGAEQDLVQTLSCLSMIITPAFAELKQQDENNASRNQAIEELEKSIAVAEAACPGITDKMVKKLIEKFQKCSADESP

[23] = target: Serine/threonine-protein kinase MRCK alpha (Homo sapiens) (UniProt Q5VT25); settings: Compound concentration 1000.0 nM
[24] = system: Mast/stem cell growth factor receptor Kit (Homo sapiens), P10721 [V559D,T670I]; settings: Compound concentration 1000.0 nM
[25] = target: Interleukin-1 receptor-associated kinase 4 (Homo sapiens) (UniProt Q9NWZ3); settings: Compound concentration 1000.0 nM
[26] = target: Serine/threonine-protein kinase MRCK gamma (Homo sapiens) (UniProt Q6DT37); settings: Compound concentration 1000.0 nM
Sequence of Serine/threonine-protein kinase MRCK gamma (Homo sapiens) (Q6DT37 whole entry): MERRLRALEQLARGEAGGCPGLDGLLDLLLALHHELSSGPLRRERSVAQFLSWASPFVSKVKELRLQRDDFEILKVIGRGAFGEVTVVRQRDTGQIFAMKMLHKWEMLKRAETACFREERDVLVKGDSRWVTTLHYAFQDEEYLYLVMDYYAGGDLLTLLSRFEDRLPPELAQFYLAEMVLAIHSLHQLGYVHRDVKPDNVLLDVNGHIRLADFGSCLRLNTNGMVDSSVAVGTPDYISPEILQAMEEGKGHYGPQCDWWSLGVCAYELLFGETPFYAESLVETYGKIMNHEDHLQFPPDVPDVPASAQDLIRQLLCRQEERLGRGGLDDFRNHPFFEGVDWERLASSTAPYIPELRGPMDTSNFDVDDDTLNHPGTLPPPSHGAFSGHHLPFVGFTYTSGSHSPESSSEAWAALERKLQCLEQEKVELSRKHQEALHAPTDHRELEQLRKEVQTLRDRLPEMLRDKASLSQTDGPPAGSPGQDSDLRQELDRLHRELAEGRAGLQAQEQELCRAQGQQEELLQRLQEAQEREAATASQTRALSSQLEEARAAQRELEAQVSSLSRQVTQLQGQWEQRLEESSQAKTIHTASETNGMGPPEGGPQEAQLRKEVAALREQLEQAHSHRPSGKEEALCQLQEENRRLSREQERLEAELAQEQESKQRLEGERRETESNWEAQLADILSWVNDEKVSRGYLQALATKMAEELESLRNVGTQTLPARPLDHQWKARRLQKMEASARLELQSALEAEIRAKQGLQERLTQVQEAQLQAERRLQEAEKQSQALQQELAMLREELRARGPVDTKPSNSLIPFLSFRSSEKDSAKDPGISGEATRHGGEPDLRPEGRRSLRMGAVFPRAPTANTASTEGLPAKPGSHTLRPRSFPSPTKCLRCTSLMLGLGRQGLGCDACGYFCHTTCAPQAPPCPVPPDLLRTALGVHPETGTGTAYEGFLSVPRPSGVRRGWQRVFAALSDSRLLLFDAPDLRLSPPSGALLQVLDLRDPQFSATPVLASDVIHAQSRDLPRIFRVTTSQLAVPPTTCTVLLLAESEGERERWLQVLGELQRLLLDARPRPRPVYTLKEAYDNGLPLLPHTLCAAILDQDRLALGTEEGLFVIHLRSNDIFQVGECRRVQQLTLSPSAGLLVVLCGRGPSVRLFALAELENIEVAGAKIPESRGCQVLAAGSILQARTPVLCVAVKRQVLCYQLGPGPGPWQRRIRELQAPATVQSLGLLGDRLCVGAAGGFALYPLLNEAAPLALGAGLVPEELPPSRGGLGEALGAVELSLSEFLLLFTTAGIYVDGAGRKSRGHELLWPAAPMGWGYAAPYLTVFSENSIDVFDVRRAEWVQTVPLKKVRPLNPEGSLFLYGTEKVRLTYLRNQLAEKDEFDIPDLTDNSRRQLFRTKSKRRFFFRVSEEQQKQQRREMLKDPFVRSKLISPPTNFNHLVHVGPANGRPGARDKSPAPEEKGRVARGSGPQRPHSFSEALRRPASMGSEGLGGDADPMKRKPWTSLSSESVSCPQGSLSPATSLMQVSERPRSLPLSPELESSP

[27] = target: Cyclin-G-associated kinase (Homo sapiens) (UniProt O14976); settings: Compound concentration 1000.0 nM
[28] = target: Protein kinase C delta type (Homo sapiens) (UniProt Q05655); settings: Compound concentration 1000.0 nM
[29] = target: Receptor-interacting serine/threonine-protein kinase 2 (Homo sapiens) (UniProt O43353); settings: Compound concentration 1000.0 nM
[30] = target: Serine/threonine-protein kinase mTOR (Homo sapiens) (UniProt P42345); settings: Compound concentration 1000.0 nM
[31] = target: Non-receptor tyrosine-protein kinase TYK2 (Homo sapiens) (UniProt P29597); settings: Compound concentration 1000.0 nM
[32] = target: Serine/threonine-protein kinase SBK1 (Homo sapiens) (UniProt Q52WX2); settings: Compound concentration 1000.0 nM
[33] = target: Phosphorylase b kinase regulatory subunit alpha, liver isoform (Homo sapiens) (UniProt P46019); settings: Compound concentration 1000.0 nM
[34] = target: Mitogen-activated protein kinase kinase kinase kinase 1 (Homo sapiens) (UniProt Q92918); settings: Compound concentration 1000.0 nM
[35] = target: Proto-oncogene tyrosine-protein kinase Src (Homo sapiens) (UniProt P12931); settings: Compound concentration 1000.0 nM
[36] = target: Muscle, skeletal receptor tyrosine-protein kinase (Homo sapiens) (UniProt O15146); settings: Compound concentration 1000.0 nM
[37] = target: Atypical kinase COQ8A, mitochondrial (Homo sapiens) (UniProt Q8NI60); settings: Compound concentration 1000.0 nM
[38] = target: Ephrin type-A receptor 3 (Homo sapiens) (UniProt P29320); settings: Compound concentration 1000.0 nM
[39] = target: Vascular endothelial growth factor receptor 3 (Homo sapiens) (UniProt P35916); settings: Compound concentration 1000.0 nM
[40] = target: Glucocorticoid receptor (Homo sapiens) (UniProt P04150); assay: GR (h) CEREP ligand profiling; settings: filed as agonist, Compound concentration 10.0 uM

With `CNC(=O)Nc1ccc2c(c1)CC[C@@]21OC(=O)N(CC(=O)N(Cc2ccc(F)cc2)[C@@H](C)C(F)(F)F)C1=O` [A-485] the residual activity [1] was 89%, the residual activity [2] was 88% and the residual activity [3] was 88%. For the same compound, the residual activity [4] was 91%, the residual activity [5] was 72% and the residual activity [6] was 83%. It also gave a residual activity [7] of 82%, an inhibition [8] of -1% and a residual activity [9] of 49%. It also gave a residual activity [10] of 89%, a residual activity [11] of 63% and a residual activity [12] of 100%. The residual activity [13] was 100%, the residual activity [14] was 100% and the residual activity [15] was 93%. For the same compound, the inhibition [16] was 10%, the residual activity [17] was 91% and the residual activity [18] was 93%. It also gave a Ki [19] of 1110 nM, a pKi [19] of 5.96 and a residual activity [20] of 91%. For the same compound, the residual activity [21] was 81%, the residual activity [22] was 90% and the residual activity [23] was 100%. It also gave a residual activity [24] of 93%, a residual activity [25] of 78% and a residual activity [26] of 88%. For the same compound, the residual activity [27] was 100%, the residual activity [28] was 76% and the residual activity [29] was 100%. The residual activity [30] was 92%, the residual activity [31] was 91% and the residual activity [32] was 79%. It also gave a residual activity [33] of 97%, a residual activity [34] of 99% and a residual activity [35] of 91%. It also gave a residual activity [36] of 91%, a residual activity [37] of 74% and a residual activity [38] of 100%. It also gave a residual activity [39] of 89% and an inhibition [40] of 13%.
Work on `CNC(=O)Nc1ccc2c(c1)[C@@]1(CC2)OC(=O)N(CC(=O)N(Cc2ccc(F)cc2)[C@@H](C)C(F)(F)F)C1=O` [A-486] yielded a residual activity [1] of 86%, a residual activity [2] of 100% and a residual activity [3] of 85%. It also gave a residual activity [4] of 100%, a residual activity [5] of 99% and a residual activity [6] of 85%. The residual activity [7] was 93%, the inhibition [8] was -1% and the residual activity [9] was 53%. For the same compound, the residual activity [10] was 81%, the residual activity [11] was 100% and the residual activity [12] was 100%. It also gave a residual activity [13] of 97%, a residual activity [14] of 96% and a residual activity [15] of 100%. The inhibition [16] was 1%, the residual activity [17] was 100% and the residual activity [18] was 83%. For the same compound, the Ki [19] was 2580 nM, the pKi [19] was 5.6 and the residual activity [20] was 94%. It also gave a residual activity [21] of 100%, a residual activity [22] of 100% and a residual activity [23] of 98%. It also gave a residual activity [24] of 100%, a residual activity [25] of 94% and a residual activity [26] of 88%. For the same compound, the residual activity [27] was 100%, the residual activity [28] was 75% and the residual activity [29] was 83%. For the same compound, the residual activity [30] was 100%, the residual activity [31] was 92% and the residual activity [32] was 75%. The residual activity [33] was 100%, the residual activity [34] was 90% and the residual activity [35] was 90%. For the same compound, the residual activity [36] was 100%, the residual activity [37] was 88% and the residual activity [38] was 100%. For the same compound, the residual activity [39] was 100% and the inhibition [40] was 16%.
